Species: Rattus norvegicus
Assay: DrugMatrix - Regimen: Daily Repeat
Format: toxicity, organism-based, Sprague-Dawley
Set-up: regimen Daily Repeat, gender Male, age 6-8 weeks
Settings: in vivo, po, route oral GAVAGE, […]; for ABSOLUTE BASOPHIL / ABSOLUTE EOSINOPHIL / ABSOLUTE LYMPHOCYTE / ABSOLUTE MONOCYTE / ABSOLUTE SEGMENTED NEUTROPHIL / BASOPHIL / EOSINOPHIL / ERYTHROCYTE COUNT / HEMATOCRIT / HEMOGLOBIN / LEUKOCYTE COUNT / LYMPHOCYTE / MEAN CORPUSCULAR HEMOGLOBIN / MEAN CORPUSCULAR HEMOGLOBIN CONCENTRATION / MONOCYTE / NEUTROPHIL / NUCLEATED RED BLOOD CELLS / PLATELET COUNT: tissue Blood; for ALANINE AMINOTRANSFERASE / ALBUMIN / ALKALINE PHOSPHATASE / ASPARTATE AMINOTRANSFERASE / BLOOD UREA NITROGEN / CARBON DIOXIDE / CHLORIDE / CHOLESTEROL / CREATINE PHOSPHOKINASE / CREATININE / GLUCOSE / LACTATE DEHYDROGENASE / LIPASE / PHOSPHORUS / POTASSIUM / SODIUM / TOTAL BILIRUBIN / TOTAL PROTEIN / URIC ACID: tissue Plasma
[1] = 0 mg/kg, 72 h, dose level Control, time 3 day
[2] = 0 mg/kg, 120 h, dose level Control, time 5 day
[3] = 250 mg/kg, 72 h, dose level Low, time 3 day

Cc1noc(NS(=O)(=O)c2ccc(N)cc2)c1C [SULFISOXAZOLE]
ABSOLUTE BASOPHIL [1]: 0 CELLS/uL
ABSOLUTE EOSINOPHIL [1]: 0 CELLS/uL
ABSOLUTE LYMPHOCYTE [1]: 11091.17 CELLS/uL
ABSOLUTE MONOCYTE [1]: 172.17 CELLS/uL
ABSOLUTE SEGMENTED NEUTROPHIL [1]: 1186.67 CELLS/uL
BASOPHIL [1]: 0%
EOSINOPHIL [1]: 0%
ERYTHROCYTE COUNT [1]: 5.87 x10E6/uL
HEMATOCRIT [1]: 36.87%
HEMOGLOBIN [1]: 14.03 G/DL
LEUKOCYTE COUNT [1]: 12.45 x10E3/uL
LYMPHOCYTE [1]: 88.67%
MEAN CORPUSCULAR HEMOGLOBIN [1]: 23.93 pg
MEAN CORPUSCULAR HEMOGLOBIN CONCENTRATION [1]: 38.1 G/DL
MONOCYTE [1]: 1.5%
NEUTROPHIL [1]: 9.83%
NUCLEATED RED BLOOD CELLS [1]: 0 /100WBC
PLATELET COUNT [1]: 1150.33 x10E3/uL
ALANINE AMINOTRANSFERASE [1]: 67.17 u/L
ALBUMIN [1]: 4.03 G/DL
ALKALINE PHOSPHATASE [1]: 462.5 u/L
ASPARTATE AMINOTRANSFERASE [1]: 88 u/L
BLOOD UREA NITROGEN [1]: 13.17 mg/dL
CARBON DIOXIDE [1]: 29.33 mmol/L
CHLORIDE [1]: 101 MEQ/L
CHOLESTEROL [1]: 69.17 mg/dL
CREATINE PHOSPHOKINASE [1]: 292.5 u/L
CREATININE [1]: 0.17 mg/dL
GLUCOSE [1]: 167.5 mg/dL
LACTATE DEHYDROGENASE [1]: 198.5 u/L
LIPASE [1]: 10.67 u/L
PHOSPHORUS [1]: 11.73 mg/dL
POTASSIUM [1]: 5.91 MEQ/L
SODIUM [1]: 143.3 MEQ/L
TOTAL BILIRUBIN [1]: 0.18 mg/dL
TOTAL PROTEIN [1]: 5.7 G/DL
URIC ACID [1]: 1.3 mg/dL
ABSOLUTE BASOPHIL [2]: 0 CELLS/uL
ABSOLUTE EOSINOPHIL [2]: 64.33 CELLS/uL
ABSOLUTE LYMPHOCYTE [2]: 12494.67 CELLS/uL
ABSOLUTE MONOCYTE [2]: 117 CELLS/uL
ABSOLUTE SEGMENTED NEUTROPHIL [2]: 1340.67 CELLS/uL
BASOPHIL [2]: 0%
EOSINOPHIL [2]: 0.33%
ERYTHROCYTE COUNT [2]: 5.82 x10E6/uL
HEMATOCRIT [2]: 36.97%
HEMOGLOBIN [2]: 14.18 G/DL
LEUKOCYTE COUNT [2]: 14.02 x10E3/uL
LYMPHOCYTE [2]: 89%
MEAN CORPUSCULAR HEMOGLOBIN [2]: 24.42 pg
MEAN CORPUSCULAR HEMOGLOBIN CONCENTRATION [2]: 38.4 G/DL
MONOCYTE [2]: 0.83%
NEUTROPHIL [2]: 9.83%
NUCLEATED RED BLOOD CELLS [2]: 0 /100WBC
PLATELET COUNT [2]: 1097.83 x10E3/uL
ALANINE AMINOTRANSFERASE [2]: 58.83 u/L
ALBUMIN [2]: 3.92 G/DL
ALKALINE PHOSPHATASE [2]: 414.17 u/L
ASPARTATE AMINOTRANSFERASE [2]: 89.17 u/L
BLOOD UREA NITROGEN [2]: 16.83 mg/dL
CARBON DIOXIDE [2]: 29.17 mmol/L
CHLORIDE [2]: 100.33 MEQ/L
CHOLESTEROL [2]: 54.5 mg/dL
CREATINE PHOSPHOKINASE [2]: 386.17 u/L
CREATININE [2]: 0.23 mg/dL
GLUCOSE [2]: 184.17 mg/dL
LACTATE DEHYDROGENASE [2]: 229.17 u/L
LIPASE [2]: 10.83 u/L
PHOSPHORUS [2]: 10.88 mg/dL
POTASSIUM [2]: 5.97 MEQ/L
SODIUM [2]: 142.2 MEQ/L
TOTAL BILIRUBIN [2]: 0.12 mg/dL
TOTAL PROTEIN [2]: 5.63 G/DL
URIC ACID [2]: 1.55 mg/dL
ABSOLUTE BASOPHIL [3]: 0 CELLS/uL
ABSOLUTE EOSINOPHIL [3]: 53.33 CELLS/uL
ABSOLUTE LYMPHOCYTE [3]: 12619.33 CELLS/uL
ABSOLUTE MONOCYTE [3]: 200.67 CELLS/uL
ABSOLUTE SEGMENTED NEUTROPHIL [3]: 1193.33 CELLS/uL
BASOPHIL [3]: 0%
EOSINOPHIL [3]: 0.33%
ERYTHROCYTE COUNT [3]: 5.71 x10E6/uL
HEMATOCRIT [3]: 36.37%
HEMOGLOBIN [3]: 14.1 G/DL
LEUKOCYTE COUNT [3]: 14.07 x10E3/uL
LYMPHOCYTE [3]: 89.67%
MEAN CORPUSCULAR HEMOGLOBIN [3]: 24.7 pg
MEAN CORPUSCULAR HEMOGLOBIN CONCENTRATION [3]: 38.77 G/DL
MONOCYTE [3]: 1.33%
NEUTROPHIL [3]: 8.67%
NUCLEATED RED BLOOD CELLS [3]: 0 /100WBC
PLATELET COUNT [3]: 1238.67 x10E3/uL
ALANINE AMINOTRANSFERASE [3]: 58.33 u/L
ALBUMIN [3]: 4.03 G/DL
ALKALINE PHOSPHATASE [3]: 426.33 u/L
ASPARTATE AMINOTRANSFERASE [3]: 80.67 u/L
BLOOD UREA NITROGEN [3]: 15 mg/dL
CARBON DIOXIDE [3]: 27.33 mmol/L
CHLORIDE [3]: 102.67 MEQ/L
CHOLESTEROL [3]: 67.67 mg/dL
CREATINE PHOSPHOKINASE [3]: 283.67 u/L
CREATININE [3]: 0.16 mg/dL
GLUCOSE [3]: 171.67 mg/dL
LACTATE DEHYDROGENASE [3]: 137.33 u/L
LIPASE [3]: 9.67 u/L
PHOSPHORUS [3]: 11.9 mg/dL
POTASSIUM [3]: 6.14 MEQ/L
SODIUM [3]: 145.13 MEQ/L
TOTAL BILIRUBIN [3]: 0.13 mg/dL
TOTAL PROTEIN [3]: 5.6 G/DL
